Assay results published in PubChem BioAssay (NCI).
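Method: 48-hour compound exposure of cells in 96-well plates, five concentrations, linear interpolation of endpoints. The concentration for 50% growth inhibition is given as GI50. At the TGI there is no net growth.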

Key:
Assay in all cases: DTP human tumour cell line panel, 48 h
[1] = test system: HL-60(TB) leukemia
[2] = test system: TK-10 renal
[3] = test system: SF-539 CNS
[4] = test system: HT29 colon
[5] = test system: SF-268 CNS
[6] = test system: CCRF-CEM leukemia
[7] = test system: UACC-257 melanoma
[8] = test system: M14 melanoma
[9] = test system: NCI/ADR-RES ovarian
[10] = test system: HCT-15 colon
[11] = test system: NCI-H460 lung
[12] = test system: UO-31 renal
[13] = test system: HS 578T breast
[14] = test system: LOX IMVI melanoma
[15] = test system: MDA-MB-231 breast
[16] = test system: SNB-75 CNS
[17] = test system: HCC-2998 colon
[18] = test system: U251 CNS
[19] = test system: SW-620 colon
[20] = test system: HOP-92 NSCLC
[21] = test system: MDA-MB-435
[22] = test system: DU-145 prostate
[23] = test system: CAKI-1 renal
[24] = test system: SF-295 CNS
[25] = test system: MALME-3M melanoma
[26] = test system: HOP-62 NSCLC
[27] = test system: MOLT-4 leukemia
[28] = test system: OVCAR-4 ovarian
[29] = test system: SK-MEL-28 melanoma

## CCNC(=O)CCCCC(=O)c1c(C)[nH]c(/C=C2\N=C(c3ccc[nH]3)C=C2OC)c1C
[1]
  TGI: 5.41 µM
[2]
  GI50: 2.37 µM
  TGI: 5.37 µM
[3]
  GI50: 1.59 µM
  TGI: 3.34 µM
[4]
  GI50: 2.34 µM
  TGI: 7.68 µM
[5]
  GI50: 2.41 µM
  TGI: 6.52 µM
[6]
  GI50: 2.59 µM
  TGI: > 100 µM
[7]
  GI50: 6.41 µM
  TGI: 26.1 µM
[8]
  GI50: 2.68 µM
  TGI: 7.13 µM
[9]
  GI50: 2.94 µM
  TGI: 10.8 µM
[10]
  GI50: 1.83 µM
  TGI: 4.4 µM
[11]
  GI50: 1.95 µM
  TGI: 4.19 µM
[12]
  GI50: 2.03 µM
  TGI: 4.51 µM
[13]
  GI50: 2.04 µM
  TGI: 4.92 µM
[14]
  GI50: 1.76 µM
  TGI: 3.65 µM
[15]
  GI50: 2.04 µM
  TGI: 4.32 µM
[16]
  GI50: 3.26 µM
  TGI: 24.4 µM
[17]
  GI50: 2.42 µM
  TGI: 7.9 µM
[18]
  GI50: 1.99 µM
  TGI: 4.5 µM
[19]
  GI50: 1.94 µM
  TGI: 3.51 µM
[20]
  GI50: 2.04 µM
  TGI: 9.69 µM
[21]
  GI50: 2.77 µM
  TGI: 7.74 µM
[22]
  GI50: 3.01 µM
  TGI: 11 µM
[23]
  GI50: 2.09 µM
  TGI: 5 µM
[24]
  GI50: 2.81 µM
  TGI: 7.6 µM
[25]
  GI50: 2.32 µM
  TGI: 5.74 µM
[26]
  GI50: 1.1 µM
  TGI: 2.88 µM
[27]
  GI50: 2.31 µM
  TGI: > 100 µM
[28]
  GI50: 1.76 µM
  TGI: 4.36 µM
[29]
  GI50: 1.66 µM
  TGI: 3.09 µM
